# Experimental data as given in PMC11484933, “Active state structures of a bistable visual opsin bound to G proteins” (Nature Communications, 2024).
# Assays:
# jsGiq (Gαiqβ1γ2) = biological target: T1, jsGiq (Gαiqβ1γ2) (Homo sapiens, UniProt P63096, A31R/D193S/L194I/D337C/T340K/V342T/I344L/K345Q/D350E/G352N/F354V); test: GTPase-Glo luminescence assay; format: biochemical; details: 2 uM G protein, 2 uM GTP stock mixed 1:1; 20 C; with and without JSR1-ATR6.11
# T1 construct: gene GNAI1; heterotrimer from High Five insect cells, His tag removed with HRV 3C
# [1] = biological target: T2, hGi (Gαi1β1γ1 heterotrimer) (Homo sapiens, UniProt P63096); test: GTPase-Glo luminescence assay; format: biochemical; details: 2 uM G protein, 2 uM GTP stock mixed 1:1; 20 C; with and without JSR1-ATR6.11
# T2 construct: gene GNAI1; human Galphai1 with N-terminal TEV-cleavable deca-His tag from E. coli BL21(DE3); Gbeta1gamma1 from transducin of bovine retinae
# T2 sequence (P63096 2-354): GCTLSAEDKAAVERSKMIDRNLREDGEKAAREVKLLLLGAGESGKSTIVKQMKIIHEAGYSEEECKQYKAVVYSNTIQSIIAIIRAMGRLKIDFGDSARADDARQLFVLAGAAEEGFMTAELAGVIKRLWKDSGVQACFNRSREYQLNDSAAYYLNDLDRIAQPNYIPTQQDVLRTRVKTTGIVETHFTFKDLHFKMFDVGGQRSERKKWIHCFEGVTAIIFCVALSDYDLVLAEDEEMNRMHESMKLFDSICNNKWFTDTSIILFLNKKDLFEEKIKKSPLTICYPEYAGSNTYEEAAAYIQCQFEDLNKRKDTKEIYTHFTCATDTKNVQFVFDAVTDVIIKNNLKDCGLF
# T2 sequence (P62871 2-340 partner): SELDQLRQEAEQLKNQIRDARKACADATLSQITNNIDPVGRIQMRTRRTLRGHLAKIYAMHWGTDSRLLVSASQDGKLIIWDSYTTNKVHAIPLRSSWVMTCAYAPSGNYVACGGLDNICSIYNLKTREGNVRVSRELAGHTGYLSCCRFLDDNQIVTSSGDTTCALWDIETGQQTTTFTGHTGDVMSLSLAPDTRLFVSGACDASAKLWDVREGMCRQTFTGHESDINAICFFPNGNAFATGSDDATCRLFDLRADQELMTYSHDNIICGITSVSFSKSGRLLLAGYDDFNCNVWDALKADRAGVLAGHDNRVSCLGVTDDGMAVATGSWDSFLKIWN
# T2 sequence (P02698 2-71 partner): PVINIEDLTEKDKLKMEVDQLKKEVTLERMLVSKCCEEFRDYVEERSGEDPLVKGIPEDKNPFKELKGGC
# T1 sequence (P63096 2-354 A31R/D193S/L194I/D337C/T340K/V342T/I344L/K345Q/D350E/G352N/F354V): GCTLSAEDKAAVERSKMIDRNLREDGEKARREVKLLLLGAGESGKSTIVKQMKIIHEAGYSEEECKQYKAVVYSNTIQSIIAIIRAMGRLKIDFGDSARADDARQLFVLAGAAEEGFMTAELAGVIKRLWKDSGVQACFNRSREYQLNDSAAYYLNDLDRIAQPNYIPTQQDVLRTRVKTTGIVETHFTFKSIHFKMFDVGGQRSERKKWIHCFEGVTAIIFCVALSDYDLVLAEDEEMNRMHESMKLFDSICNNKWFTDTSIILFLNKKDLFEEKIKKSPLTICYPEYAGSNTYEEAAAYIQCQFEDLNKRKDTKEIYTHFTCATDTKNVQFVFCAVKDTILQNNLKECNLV
# T1 sequence (P62873 2-340 partner): as the sequence (P62871 2-340 partner) above
# T1 sequence (P59768 2-68 partner): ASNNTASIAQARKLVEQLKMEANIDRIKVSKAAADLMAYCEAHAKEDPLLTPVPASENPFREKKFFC
smiles,measurement,setting,value
Nc1nc2c(ncn2[C@@H]2O[C@H](COP(=O)(O)OP(=O)(O)OP(=O)(O)O)[C@@H](O)[C@H]2O)c(=O)[nH]1 [GTP],GTP hydrolysis %,jsGiq (Gαiqβ1γ2),An in vitro activity assay showed that this chimera retains intrinsic GTPase activity
same,GTP hydrolysis %,[1],GTPase-Glo assay showing GTP depletion for hGi and jsGiq samples
